Assay results as given in patent US4866057A, “4-substituted 10-cyanomethylenepyrrolo[4,3-e]-benzazepines” (BASF Aktiengesellschaft, priority 1987, dated 1989).
Where two headings read alike, the source gives them in different places.

What was measured:
dopamine D2 receptor = target: T1, dopamine D2 receptor (Bos taurus, UniProt P20288); assay: Affinity to dopamine D2 receptor, competitive assay, 3H-spiperon; assay type: binding, bovine
T1 construct: bovine nucleus caudatus membranes; from tissue; host or cells: bovine caudate nucleus membranes
T1 sequence (P20288 whole entry): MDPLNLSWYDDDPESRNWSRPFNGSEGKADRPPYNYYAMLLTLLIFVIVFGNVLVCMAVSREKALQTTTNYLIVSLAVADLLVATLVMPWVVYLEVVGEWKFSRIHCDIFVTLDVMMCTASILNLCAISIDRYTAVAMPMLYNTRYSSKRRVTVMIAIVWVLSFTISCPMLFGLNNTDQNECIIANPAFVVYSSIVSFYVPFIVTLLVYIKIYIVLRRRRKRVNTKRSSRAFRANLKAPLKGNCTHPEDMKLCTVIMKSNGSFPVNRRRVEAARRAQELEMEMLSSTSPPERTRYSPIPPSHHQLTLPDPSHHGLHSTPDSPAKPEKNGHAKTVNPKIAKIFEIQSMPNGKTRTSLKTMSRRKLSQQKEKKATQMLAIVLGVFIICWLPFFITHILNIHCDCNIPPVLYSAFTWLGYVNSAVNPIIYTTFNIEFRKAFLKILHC
Description: (§1) 4. In vitro determination of the affinity to dopamine D1 and D2 receptors by means of competitive assays
(§2) The non-specific binding was determined using 10 μM (+)-butaclamol or using 1 μM haloperidol. After incubation at 30° C. for 60 min, the mixtures were filtered through glass fiber filters (GF/B, Whatman) and the amount of radioligand retained on the filter was determined by liquid scintillation measurement.

[1] = system: orientation hypermotility; assay: Sedative action (orientation hypermotility, mouse); assay type: in vivo, female NMRI mice; details: oral; for ED50: 0.5 h, 50% decrease in orientation hypermotility vs control, measured from 30 min after dosing for 30 min, read-out: Sedative action mouse ED 50; for sedative action compared with clozapine: in words, action of reference clozapine
Description: 4 to 8 groups each comprising 3 female NMRI mice receive the substances by oral administration. The orientation hypermotility induced by a new environment is determined photoelectrically 30 min after the administration of the substance for a period of 30 min.
The ED50 is determined as the dose which brings about a decrease in the orientation hypermotility of 50% compared with placebo-treated control animals.

dopamine D1 receptor = target: T2, dopamine D1 receptor (Bos taurus, UniProt Q95136); assay: Affinity to dopamine D1 receptor, competitive assay, 3H-SCH 23390; assay type: binding, bovine
T2 construct: bovine nucleus caudatus membranes; from tissue; host or cells: bovine caudate nucleus membranes
T2 sequence (Q95136 whole entry): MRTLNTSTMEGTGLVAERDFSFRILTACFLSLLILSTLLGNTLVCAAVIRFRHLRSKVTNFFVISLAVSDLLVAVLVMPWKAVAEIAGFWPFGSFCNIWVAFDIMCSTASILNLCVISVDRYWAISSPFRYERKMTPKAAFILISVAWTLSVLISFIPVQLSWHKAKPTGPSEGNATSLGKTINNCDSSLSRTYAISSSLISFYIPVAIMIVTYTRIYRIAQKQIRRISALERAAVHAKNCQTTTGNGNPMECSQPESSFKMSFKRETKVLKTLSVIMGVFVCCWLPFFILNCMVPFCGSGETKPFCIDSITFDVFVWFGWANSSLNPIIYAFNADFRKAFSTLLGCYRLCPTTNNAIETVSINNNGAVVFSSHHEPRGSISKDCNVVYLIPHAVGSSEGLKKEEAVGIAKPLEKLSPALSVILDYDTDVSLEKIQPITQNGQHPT
Description: as §1, §2

physostigmine = assay: Anticholinergic action (protection from lethal physostigmine); assay type: in vivo, female NMRI mice; details: oral, mouse, 30 min before physostigmine 0.825 mg/kg s.c.; protects 50% from death; read-out: Anticholinergic mouse ED 50
Description: 3. Anticholinergic action
Groups of 10 female NMRI mice receive physostigmine in a lethal dose (0.825 mg/kg) subcutaneously. The test substances are administered orally 30 min before the physostigmine administration. The ED50 is determined as the dose of substance which protects 50% of the animals from death due to physostigmine.

[2] = system: L-5-Hydroxytryptamine (L-5-HTP); assay: L-5-HTP antagonism (serotonin antagonism); assay type: in vivo, rats; details: oral, rat; for ED50: 1 h before L-5-HTP (316 mg/kg i.p.), 50% mean reduction in score, read-out: Antiserotoninergic action rat ED; for antiserotoninergic action compared with clozapine: in words, action of reference clozapine
Description: 2. L-5-HTP antagonism (serotonin antagonism)
L-5-Hydroxytryptamine (L-5-HTP), a serotonin prodrug, causes in rats (316 mg/kg i.p.) a state of agitation which is characterized by signs such as head-shaking, tremor and movements of the forepaws. The animals are observed for 1 h after administration of L-5-HTP, and the signs are scored every 10 min. The test substances are administered orally 1 h before L-5-HTP; n/dose=6. The ED50 is calculated as the dose which brings about a mean reduction in the score of a control group by 50%.

[3] = bovine nucleus caudatus membranes, pH 7.4, 30° C., 60 min, 0.2 nM radioligand, read-out: Affinity to D2 receptor, Inhibition of 3H-spiperon binding, Ki
[4] = bovine nucleus caudatus membranes, pH 7.4, 30° C., 60 min, 1 nM radioligand, read-out: Affinity to D1 receptor, Inhibition of 3H-SCH 23 390 binding, Ki

SMILES	Ki (dopamine D2 receptor) [µM]	ED50 [1] [mg/kg]	sedative action compared with clozapine [1]	Ki (dopamine D1 receptor) [µM]	ED50 (physostigmine) [mg/kg]	ED50 [2] [mg/kg]	antiserotoninergic action compared with clozapine [2]	Ki (dopamine D2 receptor; [3]) [µM]	Ki (dopamine D1 receptor; [4]) [µM]
CN1CCN(C2=Nc3ccccc3/C(=C/C#N)c3cn(C)cc32)CC1 [Example 1a, 10-Cyanomethylene-2-methyl-4-(4-methyl-1-piperazinyl)pyrrolo[4,3-e]benzazepine]	~2	2.96	reached or exceeded	0.0105	> 21.5	1.18	reached or exceeded		
CN1CCN(C2=Nc3cc(Cl)ccc3C(=CC#N)c3cn(Cc4ccccc4)cc32)CC1 [Example 11, (E),(Z)-7-Chloro-2-benzyl-10-cyanomethylene-4-(4-methyl-1-piperazinyl)pyrrolo[4,3-e]benzazepine]		35			> 100			~1	0.0128
CN1CCN(C2=Nc3cc(Cl)ccc3Nc3ccccc32)CC1 [Clozapine, clozapine, reference compound]		3.8				6.3			
CN1CCN(C2=Nc3ccccc3C(=CC#N)c3cn(Cc4ccccc4)cc32)CC1 [Example 9, (E),(Z)-10-Cyanomethylene-2-benzyl-4-(4-methyl-1-piperazinyl)pyrrolo[4,3-e]benzazepine]		29.8			> 46.4	46.4		~1	0.0034
CN1CCN(C2=Nc3cc(Cl)ccc3C(=CC#N)c3cn(C)cc32)CC1 [Example 3, (E),(Z)-7-Chloro-10-cyanomethylene-2-methyl-4-(4-methyl-1-piperazinyl)pyrrolo[4,3-e]benzazepine]		0.82	reached or exceeded		17.5	0.2	reached or exceeded	~1	0.02
CCN1CCN(C2=Nc3ccccc3C(=CC#N)c3cn(C)cc32)CC1 [Example 12, (E),(Z)-10-Cyanomethylene-2-methyl-4-(4-ethyl-1-piperazinyl)pyrrolo[4,3-e]benzazepine]		4.7			16.7	3.3	reached or exceeded	~2	0.0208
CN1CCN(C2=Nc3cc(Cl)ccc3/C(=C/C#N)c3cn(C)cc32)CC1 [Example 3a, (E)-7-Chloro-10-cyanomethylene-2-methyl-4-(4-methyl-1-piperazinyl)pyrrolo[4,3-e]benzazepine]		0.67				0.29			
